We go through 28 compounds from US12187662B2, “FOXM1 inhibitor compositions and methods of using the same” (The Board of Trustees of the University of Illinois, priority 2018, dated 2025).

Like-named read-outs stand apart in the source and are kept apart here.

For data set [1], the system named is MCF7 cells. The data set is described as follows: Cell proliferation assay (WST-1), MCF7. In kind it is cell-based, human. Particulars: read-out: IC50 MCF7. How it is done:
All cells were tested for mycoplasma using Real-Time PCR Mycoplasma Detection Kit (Akron Biotech, Boca Raton, FL).
All assays were performed in triplicate.

Data set [2] can be described thus: Pharmacokinetic studies in mice after single s.c. or oral dose.
Procedure: For s.c. injection, each compound was dissolved in DMSO and then mixed with corn oil for a total injection volume of 100 μL (10% DSMO+90% corn oil) per mouse. For oral gavage, compounds were administered in a 200 μL formulation of 9/0.5/0.5/90 parts of PEG400/Tween80/Povidone/0.5% Carboxymethylcellulose. […] Compounds were quantified by LC-MS/MS at the University of Illinois Metabolomics Core Facility. The data were fitted to a non-compartment model.
Where [3] appears, read: inhibition of cell proliferation.
Where [4] appears, read: Homo sapiens, MCF7, inhibition of cell proliferation.

As to “1-(6-(4-((Z)-((5S,7S)-adamantan-2-ylidene)(4-chlorophenyl)methyl)phenoxy)hexyl)-1H-imidazole [NB-60]”, the 50% inhibitory concentration (IC50) in data set [1] (setting [3]) was determined as 16000 nM. For `c1cn(CCCCCCOc2ccc(C(=C3C4CC5CC(C4)CC3C5)c3ccc(OCCCCCCn4ccnc4)cc3)cc2)cn1` [NB-61, 1,1′-((((((5r,7r)-adamantan-2-ylidene)methylene)bis(4,1-phenylene))bis(oxy))bis(hexane-6,1-diyl))bis(1H-imidazole)], the IC50 in data set [1] (setting [4]) was 7500 nM. The same measure, in the same setting: for `C[N+]1(CCCCCCOc2ccc(C(=C3C4CC5CC(C4)CC3C5)c3ccc(OCCCCCC[N+]4(C)CCC[C@H]4CO)cc3)cc2)CCC[C@H]1CO` (stereo partly drawn) [NB-139, (1R,1′R,2S,2'S)-1,1′-((((((5r,7r)-adamantan-2-ylidene)methylene)bis(4,1-phenylene))bis(oxy))bis(hexane-6,1-diyl))bis(2-(hydroxymethyl)-1-methylpyrrolidin-1-ium) diiodide] the value was 900 nM. For `C[n+]1ccn(CCCCCCOc2ccc(C(=C3C4CC5CC(C4)CC3C5)c3ccc(Cl)cc3)cc2)c1` [NB-62, 1-(6-(4-((Z)-((5S,7S)-adamantan-2-ylidene)(4-chlorophenyl)methyl)phenoxy)hexyl)-3-methyl-1H-imidazol-3-ium iodide], the concentration for half-maximal inhibition (IC50) in data set [1] (setting [4]) is 5500 nM. Besides, the half-life in data set [2] (female, CD-1, mouse, plasma, sc, 40 mg/kg) was 36.8 h. For the same compound, the exposure AUC(0-t) in data set [2] (female, CD-1, mouse, plasma, sc, 40 mg/kg, PK s.c. AUC0-48, mice, 40 mg/kg s.c.) was 150 µM·h. Moreover, the “PK p.o. AUC0-48” value in data set [2] (mice, 40 mg/kg p.o.) was “too low to measure”. As for `OCC[N+]1(CCCCCCOc2ccc(C(=C3C4CC5CC(C4)CC3C5)c3ccc(OCCCCCC[N+]4(CCO)CCCCCC4)cc3)cc2)CCCCCC1` [NB-142, 1,1′-((((((5r,7r)-adamantan-2-ylidene)methylene)bis(4,1-phenylene))bis(oxy))bis(hexane-6,1-diyl))bis(1-(2-hydroxyethyl)azepan-1-ium) diiodide], the 50% inhibitory concentration (IC50) in data set [1] (setting [4]) came out at 2400 nM. Regarding `OC[C@@H]1CCCN1CCCCCCOc1ccc(C(=C2C3CC4CC(C3)CC2C4)c2ccc(OCCCCCCN3CCC[C@H]3CO)cc2)cc1` [NB-138, ((2S,2'S)-((((((5r,7r)-adamantan-2-ylidene)methylene)bis(4,1-phenylene))bis(oxy))bis(hexane-6,1-diyl))bis(pyrrolidine-1,2-diyl))dimethanol], the concentration for half-maximal inhibition (IC50) in data set [1] (setting [4]) came to 700 nM. Also, in data set [2] (mice, 40 mg/kg p.o.), the “PK p.o. AUC0-48” value was 1.84 µM·h and the “PK p.o. t1/2” value was 25.0 h. Turning to `CCN(CCO)CCCCCCOc1ccc(C(=C2C3CC4CC(C3)CC2C4)c2ccc(OCCCCCCN(CC)CCO)cc2)cc1` [NB-130, 2,2′-(((((((5r,7r)-adamantan-2-ylidene)methylene)bis(4,1-phenylene))bis(oxy))bis(hexane-6,1-diyl))bis(ethylazanediyl))bis(ethan-1-ol)], in data set [1] (setting [4]), the IC50 stood at 1200 nM. Besides, the “PK p.o. AUC0-48” value in data set [2] (mice, 40 mg/kg p.o.) was “too low to measure”. On to `C[N+](CCO)(CCO)CCCCCCOc1ccc(C(=C2C3CC4CC(C3)CC2C4)c2ccc(OCCCCCC[N+](C)(CCO)CCO)cc2)cc1` [NB-135, 6,6′-(((((5r,7r)-adamantan-2-ylidene)methylene)bis(4,1-phenylene))bis(oxy))bis(N,N-bis(2-hydroxyethyl)-N-methylhexan-1-aminium) diiodide], for which the half-inhibitory concentration (IC50) in data set [1] (setting [4]) came out at 2100 nM. Consider “1-(6-(4-((Z)-((5S,7S)-adamantan-2-ylidene)(4-chlorophenyl)methyl)phenoxy)hexyl)-4-methylpiperazine [NB-64]”, for which the 50% inhibitory concentration (IC50) in data set [1] (setting [3]) worked out at 3000 nM. On to `Clc1ccc(C(=C2C3CC4CC(C3)CC2C4)c2ccc(OCCCCCCN3CCCCCC3)cc2)cc1` [NB-119, 1-(6-(4-((Z)-((5S,7S)-Adamantan-2-ylidene)(4-chlorophenyl)methyl)phenoxy)hexyl)azepane], for which the IC50 in data set [1] (setting [4]) was determined as 4200 nM. In the case of `CC1(O)CN(CCCCCCOc2ccc(C(=C3C4CC5CC(C4)CC3C5)c3ccc(OCCCCCCN4CC(C)(O)C4)cc3)cc2)C1` [NB-143, 1,1′-((((((5r,7r)-adamantan-2-ylidene)methylene)bis(4,1-phenylene))bis(oxy))bis(hexane-6,1-diyl))bis(3-methylazetidin-3-ol)], the IC50 in data set [1] (setting [4]) stood at 1100 nM.

For the compound `c1cc(C(=C2C3CC4CC(C3)CC2C4)c2ccc(OCCCCN3CCCCCC3)cc2)ccc1OCCCCN1CCCCCC1` [NB-121, 1,1′-((((((5r,7r)-adamantan-2-ylidene)methylene)bis(4,1-phenylene))bis(oxy))bis(butane-4,1-diyl))bis(azepane)], in data set [1] (setting [4]), the concentration for half-maximal inhibition (IC50) came to 1600 nM.

With `OCCN(CCO)CCCCCCOc1ccc(C(=C2C3CC4CC(C3)CC2C4)c2ccc(OCCCCCCN(CCO)CCO)cc2)cc1` [NB-131, 2,2′,2″,2″′-(((((((5r,7r)-adamantan-2-ylidene)methylene)bis(4,1-phenylene))bis(oxy))bis(hexane-6,1-diyl))bis(azanetriyl))tetrakis(ethan-1-ol)], the 50% inhibitory concentration (IC50) in data set [1] (setting [4]) amounted to 900 nM. Moreover, the “PK p.o. AUC0-48” value in data set [2] (mice, 40 mg/kg p.o.) is reported as “too low to measure”. In the case of `OC1CCN(CCCCCCOc2ccc(C(=C3C4CC5CC(C4)CC3C5)c3ccc(OCCCCCCN4CCC(O)CC4)cc3)cc2)CC1` [NB-132, 1,1′-((((((5r,7r)-adamantan-2-ylidene)methylene)bis(4,1-phenylene))bis(oxy))bis(hexane-6,1-diyl))bis(piperidin-4-ol)], the IC50 in data set [1] (setting [4]) was 1600 nM. Same read-out and setting: for `Clc1ccc(C(=C2C3CC4CC(C3)CC2C4)c2ccc(OCCCCCCN3CCCCC3)cc2)cc1` [NB-118, 1-(6-(4-((Z)-((5S,7S)-Adamantan-2-ylidene)(4-chlorophenyl)methyl)phenoxy)hexyl)piperidine] the value was 4400 nM. For `C[N+]1(CCCCCCOc2ccc(C(=C3C4CC5CC(C4)CC3C5)c3ccc(OCCCCCC[N+]4(C)CCC(O)CC4)cc3)cc2)CCC(O)CC1` (stereo not drawn) [NB-136, 1,1′-((((((5r,7r)-adamantan-2-ylidene)methylene)bis(4,1-phenylene))bis(oxy))bis(hexane-6,1-diyl))bis(4-hydroxy-1-methylpiperidin-1-ium) diiodide], the concentration for half-maximal inhibition (IC50) in data set [1] (setting [4]) turned out to be 1000 nM. As to `CN1CC[N+](C)(CCCCCCOc2ccc(C(=C3C4CC5CC(C4)CC3C5)c3ccc(OCCCCCC[N+]4(C)CCN(C)CC4)cc3)cc2)CC1` [NB-69, 1,1′-((((((5r,7r)-adamantan-2-ylidene)methylene)bis(4,1-phenylene))bis(oxy))bis(hexane-6,1-diyl))bis(1,4-dimethylpiperazin-1-ium) dimethanesulfonate], in data set [1] (setting [4]), the concentration for half-maximal inhibition (IC50) came to 6000 nM. `c1cc(C(=C2C3CC4CC(C3)CC2C4)c2ccc(OCCCCCN3CCCCC3)cc2)ccc1OCCCCCN1CCCCC1` [NB-122, 1,1′-((((((5r,7r)-adamantan-2-ylidene)methylene)bis(4,1-phenylene))bis(oxy))bis(pentane-5,1-diyl))dipiperidine]: in data set [1] (setting [4]), the concentration for half-maximal inhibition (IC50) was 1200 nM. `c1cc(C(=C2C3CC4CC(C3)CC2C4)c2ccc(OCCCCCN3CCCCCC3)cc2)ccc1OCCCCCN1CCCCCC1` [NB-123, 1,1′-((((((5r,7r)-adamantan-2-ylidene)methylene)bis(4,1-phenylene))bis(oxy))bis(pentane-5,1-diyl))bis(azepane)]: the IC50 in data set [1] (setting [4]) was 1000 nM. With `OCC[N+]1(CCCCCCOc2ccc(C(=C3C4CC5CC(C4)CC3C5)c3ccc(OCCCCCC[N+]4(CCO)CCCC4)cc3)cc2)CCCC1` [NB-140, 1,1′-((((((5r,7r)-adamantan-2-ylidene)methylene)bis(4,1-phenylene))bis(oxy))bis(hexane-6,1-diyl))bis(1-(2-hydroxyethyl)pyrrolidin-1-ium) diiodide], the 50% inhibitory concentration (IC50) in data set [1] (setting [4]) turned out to be 1600 nM.

Turning to “1-(6-(4-((Z)-((5S,7S)-adamantan-2-ylidene)(4-chlorophenyl)methyl)phenoxy)hexyl)-1-methylazepan-1-ium iodide [NB-85]”, the IC50 in data set [1] (setting [3]) was 9800 nM. As to `c1cc(C(=C2C3CC4CC(C3)CC2C4)c2ccc(OCCCCCCN3CCC3)cc2)ccc1OCCCCCCN1CCC1` [NB-133, 1,1′-((((((5r,7r)-adamantan-2-ylidene)methylene)bis(4,1-phenylene))bis(oxy))bis(hexane-6,1-diyl))bis(azetidine)], the IC50 in data set [1] (setting [4]) was 800 nM. With `OC1CN(CCCCCCOc2ccc(C(=C3C4CC5CC(C4)CC3C5)c3ccc(OCCCCCCN4CC(O)C4)cc3)cc2)C1` [NB-145, 1,1′-((((((5r,7r)-adamantan-2-ylidene)methylene)bis(4,1-phenylene))bis(oxy))bis(hexane-6,1-diyl))bis(azetidin-3-ol)], in data set [1] (setting [4]), the half-maximal inhibitory concentration (IC50) worked out at 900 nM. Also, in data set [2] (mice, 40 mg/kg p.o.), the “PK p.o. AUC0-48” value is “too low to measure”.

Consider “(S)-1-(6-(4-((Z)-((5S,7S)-adamantan-2-ylidene)(4-chlorophenyl)methyl)phenoxy)hexyl)-1-methyl-1λ^4-piperidin-2-ylium iodide [NB-84]”, for which, in data set [1] (setting [3]), the IC50 is 6000 nM. `OCC[N+]1(CCCCCCOc2ccc(C(=C3C4CC5CC(C4)CC3C5)c3ccc(OCCCCCC[N+]4(CCO)CCCCC4)cc3)cc2)CCCCC1` [NB-141, 1,1′-((((((5r,7r)-adamantan-2-ylidene)methylene)bis(4,1-phenylene))bis(oxy))bis(hexane-6,1-diyl))bis(1-(2-hydroxyethyl)piperidin-1-ium) diiodide]: the IC50 in data set [1] (setting [4]) is 3600 nM.

Turning to `CC1(O)C[N+](C)(CCCCCCOc2ccc(C(=C3C4CC5CC(C4)CC3C5)c3ccc(OCCCCCC[N+]4(C)CC(C)(O)C4)cc3)cc2)C1` (stereo not drawn) [NB-144, 1,1′-((((((5r,7r)-adamantan-2-ylidene)methylene)bis(4,1-phenylene))bis(oxy))bis(hexane-6,1-diyl))bis(3-hydroxy-1,3-dimethylazetidin-1-ium) diiodide], the half-maximal inhibitory concentration (IC50) in data set [1] (setting [4]) worked out at 1800 nM.

Take `c1cc(C(=C2C3CC4CC(C3)CC2C4)c2ccc(OCCCCN3CCCCC3)cc2)ccc1OCCCCN1CCCCC1` [NB-120, 1,1′-((((((5r,7r)-adamantan-2-ylidene)methylene)bis(4,1-phenylene))bis(oxy))bis(butane-4,1-diyl))dipiperidine]: in data set [1] (setting [4]), the IC50 stood at 900 nM.

As for `C[N+]1(CCCCCCOc2ccc(C(=C3C4CC5CC(C4)CC3C5)c3ccc(OCCCCCC[N+]4(C)CCC4)cc3)cc2)CCC1` [NB-137, 1,1′-((((((5r,7r)-adamantan-2-ylidene)methylene)bis(4,1-phenylene))bis(oxy))bis(hexane-6,1-diyl))bis(1-methylazetidin-1-ium) diiodide], the IC50 in data set [1] (setting [4]) worked out at 2300 nM.
